Reference: PMC5418574, “Facile access to potent antiviral quinazoline heterocycles with fluorescence properties via merging metal-free domino reactions” (Nature Communications, 2017)
Values joined by “and” are separate entries in the source; they are usually repeats but may differ in a detail not shown here. Equal values may be shown once. Read-outs that look alike come from different tables or passages of the source.

Assays:
[1] = trypan blue exclusion cytotoxicity assay; format: cell-based; details: human, primary HFFs (human foreskin fibroblasts), 0.2-100 μM for 3 days, n=6 (artesunic acid n=3)
Procedure: (§1) In addition, EC50 values were confirmed using non-GFP-expressing HCMV (strain AD169) by a classical plaque formation assay on HFFs (n=4), providing data consistent with the GFP-based data shown in Table 1, that is, compound 7h, 7.3±0.7 μM; compound 8, 0.3±0.0 μM; compound 9, 0.3±0.1 μM. Moreover, antiviral activity was clearly separated from putative cytotoxic effects because of the results obtained with a standard trypan blue exclusion assay. […] Consistent with these findings are results from a MTS-based cell proliferation assay, showing moderate or no antiproliferative effects on HFFs for all analysed compounds in concentrations up to 30 μM (see Supplementary Fig. 5 and Supplementary Methods). Thus, the new quinazolines and hybrid compounds can be regarded as selective, which is one of the most important aspects in drug design.
Cytotoxicity and Cell Proliferation Assays
Assays measuring distinct parameters of cytotoxicity and/or cell proliferation were performed as described earlier.7, 8 In brief, a trypan blue exclusion assay was performed with cultured cells seeded in 24-well plates and incubated with increasing concentrations of antiviral compounds (range of 0.2 μM to […]
before the percentage of viable cells was determined by microscopic counting (determination at least in triplicates). The cell proliferation assay (CellTiter 96 AQueous One Solution cell proliferation assay; Promega) was performed in a 96-well plate format after a 3-day treatment with compounds under standard conditions of measurement as described by the manufacturer. […]

HCMV AD169-GFP = assay: HCMV GFP-based replication assay (automated GFP fluorometry); format: cell-based, human cytomegalovirus
Procedure: The measurement of antiviral activity was based on automated fluorometry using a green fluorescent protein (GFP)-expressing, recombinant HCMV (excitation 485 nm, emission 535 nm; see Supplementary Note 2, Supplementary Data 1 and Supplementary Fig. 4 for dose–response curves).
HCMV GFP‐based replication assay and cell proliferation assay. The replication of human cytomegalovirus (HCMV) was determined by an established HCMV GFP-based replication assay as carried out over a duration of approx. seven days (multi-round infection) using cultures of primary human foreskin fibroblasts (HFFs). HFFs were cultivated in 12-well plates for the infection with a GFP-expressing recombinant human cytomegalovirus (HCMV AD169-GFP) and a signal quantitation using automated GFP fluorometry as described before.2-4 All data represent mean values of determinations in quadruplicate (HCMV infections performed in duplicate, GFP measurements of total cell lysates performed in duplicate). Processing and evaluation of data was performed by the use of Excel (means and standard deviations, see Supplementary Figure 4 and Supplementary Data 1). […]

primary HFFs = assay: confocal laser-scanning microscopy of cellular uptake of fluorescent compounds; format: cell-based, human; details: 1–10 μM, uninfected or HCMV-infected, 20 h incubation
Procedure: Figure 7 Microscopy-based visualization of cellular uptake of fluorescent quinazoline compounds. (a) Artesunic acid–quinazoline hybrids 8 and 9. (b–d) Compounds 7h, 7g and 9 were analysed for properties of fluorescence imaging using confocal laser-scanning microscopy. HFFs were cultivated in six-well plates on cover slips and were either directly incubated with compounds by addition to the culture media for 20 h (c) or were added after HCMV infection (b,d; compound addition at 50 h post infection, fixation and analysis of cells 20 h later; scale bar, 10 μm). The chosen concentrations were 10 μM for compounds 7h, 7g and 9, or 1 μM for compound 9 in panels 4, 9 (b), panels 5, 10 (c) and panels 6–10 (d), referring to the compounds' EC50 values of anti-HCMV activity (see Table 1). The depicted images are representative for three independent experiments. Lack of mycoplasm contamination was verified by routine 4,6-diamidino-2-phenylindole staining. General procedures of cell fixation, indirect immunofluorescence staining of proteins (d) and microscopic analysis have been described elsewhere.
When analysing primary HFFs, the fluorescent compounds 7g, 7h and 9 could nicely be depicted both in extracellular (transparent arrows) and intracellular localizations (filled arrows; Fig. 7b,c). […] A nonfluorescent artemisinin-derived control compound (Fig. 7c, panels 2 and 7; see also Supplementary Fig. 6), the DMSO panels (solvent controls) as well as the inspection of different excitation wavelengths of the confocal laser-scanning microscopy confirmed the specificity of signals and a lack of unwarranted cross-fluorescence. […] An indirect immunofluorescence counterstaining of viral and cellular proteins[36][37] led to the detection of nuclear markers, that is, the viral protein kinase pUL97 and cellular lamins type A/C (Fig. 7d, panels 4, 9, 14 or 5, 10, 15, respectively), in the context of extracellular and intracellular fluorescence signals of compounds 7h and 9 (Fig. 7d, panels 1–5 or 6–15, respectively). […]

[2] = test system: non-GFP-expressing HCMV (strain AD169); assay: classical plaque formation assay on HFFs; format: cell-based, human cytomegalovirus; details: Human betaherpesvirus 5, AD169, read-out: EC50, plaque formation assay
Procedure: as §1

[3] = Human betaherpesvirus 5, AD169, read-out: HCMV EC50
[4] = Human betaherpesvirus 5, AD169, read-out: EC50 (sheet Curves)

Compound	CC50 at 3 days [1] [µM]	GFP signal, % of Inf./DMSO, MW (mean) (HCMV AD169-GFP; 0.01 µM) [%]	GFP signal, % of Inf./DMSO, single determination (raw data) (HCMV AD169-GFP; 0.01 µM)	GFP signal, % of Inf./DMSO, MW (mean) (HCMV AD169-GFP; 0.04 µM) [%]	GFP signal, % of Inf./DMSO, single determination (raw data) (HCMV AD169-GFP; 0.04 µM)	GFP signal, % of Inf./DMSO, MW (mean) (HCMV AD169-GFP; 0.12 µM) [%]	GFP signal, % of Inf./DMSO, single determination (raw data) (HCMV AD169-GFP; 0.12 µM)	GFP signal, % of Inf./DMSO, MW (mean) (HCMV AD169-GFP; 0.37 µM) [%]	GFP signal, % of Inf./DMSO, single determination (raw data) (HCMV AD169-GFP; 0.37 µM)	GFP signal, % of Inf./DMSO, MW (mean) (HCMV AD169-GFP; 1.1 µM) [%]	GFP signal, % of Inf./DMSO, single determination (raw data) (HCMV AD169-GFP; 1.1 µM)	GFP signal, % of Inf./DMSO, MW (mean) (HCMV AD169-GFP; 3.3 µM) [%]	GFP signal, % of Inf./DMSO, single determination (raw data) (HCMV AD169-GFP; 3.3 µM)	EC50 (HCMV AD169-GFP; [3]) [µM]	GFP signal, % of Inf./DMSO, MW (mean) (HCMV AD169-GFP; 10 µM) [%]	GFP signal, % of Inf./DMSO, single determination (raw data) (HCMV AD169-GFP; 10 µM)	cellular uptake (intracellular fluorescence) (primary HFFs)	EC50 [2] [µM]	EC50 (HCMV AD169-GFP; [4]) [µM]
Cc1ccc(-c2cc(-c3ccc(C)cc3)c3c(N)ncnc3c2C#N)cc1 [7b]	> 100	89	90% and 87% and 92%	89	91% and 86% and 89% and 90%	87	98% and 91% and 76% and 82%	89	81% and 82% and 95% and 98%	62	65% and 63% and 64% and 56%	53	55% and 51% and 56%	9.5 ± 4.8					
N#Cc1c(-c2ccc(C(F)(F)F)cc2)cc(-c2ccc(C(F)(F)F)cc2)c2c(N)ncnc12 [7h]	> 100					72	60% and 89% and 90% and 49%	71	80% and 75% and 61% and 68%	75	61% and 62% and 87% and 89%	58	58% and 67% and 50% and 57%	4.6 ± 0.9	22	16% and 27% and 28%	efficient cellular uptake	7.3 ± 0.7	
CC1CCC2C(C)C(OC(=O)CCC(=O)OCCCNc3ncnc4c(C#N)c(-c5ccc(F)cc5)cc(-c5ccc(F)cc5)c34)OC3OC4(C)CCC1C32OO4 (stereo not shown) [compound 8]	> 100	88	102% and 75% and 74%	90	89% and 86% and 90% and 94%	88	93% and 86% and 79%	73	80% and 78% and 68% and 66%	11	10% and 11% and 12%	7	7.61% and 6.36% and 6% and 7%	0.6 ± 0.1				0.3	0.64
C[C@H]1[C@H](OC(=O)CCC(=O)O)O[C@@H]2O[C@@]3(C)CC[C@H]4[C@H](C)CC[C@@H]1[C@@]24OO3 [Artesunic acid, reference compound]	82 ± 0.9													3.8 ± 0.4					
Nc1nc(O)c2ncn(COC(CO)CO)c2n1 [Ganciclovir, reference compound]	> 100													2.6 ± 0.5					
COc1ccc(-c2cc(-c3ccc(OC)cc3)c3c(N)ncnc3c2C#N)cc1 [7i]	> 100	82	85% and 84% and 78%	91	100% and 98% and 84%	83	89% and 80% and 75%	54	53% and 57%	38	39% and 42% and 35%	31	28% and 26% and 34% and 35%	0.6 ± 0.1					0.56
CC1CCC2C(C)C(OC(=O)CCC(=O)OCCCNc3ncnc4c(C#N)c(-c5ccc(C(F)(F)F)cc5)cc(-c5ccc(C(F)(F)F)cc5)c34)OC3OC4(C)CCC1C32OO4 (stereo not shown) [compound 9]	> 100	84	73% and 98% and 95% and 70%	81	84% and 89% and 73% and 77%	49	51% and 47% and 53% and 46%	1.06	0.952% and 0.865% and 1.31% and 1.1%	0.87	0.763% and 0.908% and 0.901%			0.1			efficient cellular uptake	0.3 ± 0.1	
N#Cc1c(-c2ccc(F)cc2)cc(-c2ccc(F)cc2)c2c(N)ncnc12 [7g]	> 100					93	82% and 87% and 122% and 80%	94	94% and 96% and 90%	79	73% and 94% and 71% and 79%	62	61% and 63% and 60% and 66%	4.9 ± 0.2	10		efficient cellular uptake		
C[C@@H]1CC[C@H]2[C@@H](C)C(=O)O[C@@H]3O[C@@]4(C)CC[C@@H]1[C@]32OO4 [Artemisinin, reference compound]	> 100													> 10					
